Data on three compounds can be found in PMC8474116, “Discovery of Novel Acetamide-Based Heme Oxygenase-1 Inhibitors with Potent In Vitro Antiproliferative Activity” (Journal of Medicinal Chemistry, 2021).

Data set [1] is described as follows: Bidirectional permeability (Caco-2). Conditions: human. Type of data set: in vitro ADME. On the technique in general: Caco-2 cells form a polarised layer with tight junctions and transporters.
The subject of data set [2] is H5V cells. Briefly: Tube formation assay, H5V endothelial cells with U87MG conditioned medium. Type of data set: cell-based, murine. Conditions: H5V cells with CM2, medium from U87MG cultured with 10 μM, 48 h. Here is the method:
Subconfluent U87MG cell cultures were placed in media supplemented with 1% FBS (representing the conditioned medium 1 (CM1) or control) or containing 10 μM of 7l molecule (representing the conditioned medium 2 (CM2)) and incubated at 37 °C for 48 h. Subsequently, the CMs were collected and centrifuged at 2000 rpm for 5 min, and the supernatants were frozen at −80 °C until use. GeltrexTM reduced growth factor basement membrane matrix (Invitrogen) was thawed at 4 °C overnight before use. GeltrexTM matrix was added to a 24-well plate (95 μL/well) and then incubated at 37 °C for 30 min to allow polymerization. Murine microvascular endothelial cells (H5V) were starved overnight in the growth medium, and then the cells were seeded onto the layer of GeltrexTM matrix and cultured with 200 μL of CM1 and CM2 at 37 °C for 48 h. Three randomly selected fields of view were captured with a digital camera (Canon) connected to an inverted microscope (Axio Observer A1; Carl Zeiss, Göttingen, Germany). Tube numbers per field were calculated as the percentage of control.

Data set [3] deals with HO-1. Briefly: HO-1 immunolocalization (immunofluorescence) in U87MG. Type of data set: cell-based, human. As to conditions: 10 μM, 48 h. On the procedure:
To determine the cellular distribution of heme oxygenase-1 in tumor cells, immunofluorescence analysis was performed as previously described.[62] Tumor cell lines were cultured on glass coverslips fixed in 4% paraformaldehyde in PBS (15′ at room temperature), permeabilized with 0.2% of Triton X100, blocked with 0.1% of BSA in PBS, and then probed with rabbit HO-1 antibody. […] DNA was counterstained stained with DAPI (#940110, Vector Laboratories). After a series of PBS and double-distilled water washes, the fixed cells were cover-slipped with the Vectashield mounting medium (Vector Laboratories, Inc., Burlingame, CA). Localization of the antibody was performed by Zeiss fluorescent microscopy.

For data set [4], the system named is HO-1. Briefly: HO-1 protein expression by Western blot, U87MG. Type of data set: cell-based, human. Conditions: 10 μM, 48 h. On the procedure:
(§1) Proteins were extracted from total cell lysate, as previously described.[61] Briefly, cell lines were added to a buffer containing 20 mM Tris (pH 7.4), 2 mM EDTA, 0.5 mM EGTA, 50 mM mercaptoethanol, and […] sucrose supplemented with phosphatase and protease inhibitor cocktails (Roche Diagnostics, Monza, Italy). Subsequently, protein samples were sonicated twice for 20′ by using an ultrasonic probe, followed by centrifugation at 10 000g for 10 min at 4 °C. Sample proteins (30 μg) were diluted in 4X NuPage LDS sample buffer (Invitrogen, NP0007), heated at 80 °C for 5 min, and then separated on a Biorad Criterion XT 4–15% Bis–Tris gel (BIO-RAD) by electrophoresis and then transferred to a PVDF membrane (BIO-RAD). Blots were blocked using the Odyssey Blocking Buffer (LI-COR Biosciences) and probed with appropriate antibodies: HO-1 antibody (GeneTex GTX101147), goat polyclonal anti-VEGF (cat. no. sc-1836, Santa Cruz Biotechnology), and rabbit polyclonal anti-β-tubulin (cat n.sc-9104, Santa Cruz Biotechnology) and β-actin antibody (GeneTex GTX109639).
(§2) The secondary antibodies goat antirabbit (Odyssey, #926-32211; Odyssey #926-68021) and donkey antigoat IRDye 800CW (cat #926-32214; Li-Cor Biosciences) were used at 1:7000. Blots were scanned, and densitometric analysis was performed with the Odyssey Infrared Imaging System. Values were normalized to β-actin and to β-tubulin.
For orientation: Immunoblotting shows a protein as a band on a membrane.

The nature of data set [5]: Microsomal stability, human liver microsome assay (Eurofins). Type of data set: in vitro ADME. As to conditions: human liver microsomes, protein 0.1 mg/mL. An excerpt: (§3) In vitro ADMET testing has been performed at Eurofins Scientific.
Data set [6] concerns the target T1, human CYP2D6 (Homo sapiens, UniProt P10635).
T1 construct: Eurofins Scientific (contract assay) 1338
The experiment in a line: CYP2D6 inhibition (Eurofins). It counts as in vitro ADME.
Text: as §3

Data set [7] can be described thus: Aqueous solubility in simulated gastric fluid (Eurofins). Type of data set: physicochemical. On the procedure: In vitro ADMET testing has been performed at Eurofins Scientific. Aqueous solubility in simulated gastric fluid (catalogue product number 2061), intrinsic clearance in liver microsome-human (catalogue product number 607), CYP2D6 and CYP3A4 inhibition (catalogue product numbers 1338 and 391, respectively), and hERG human potassium ion channel binding (catalogue product number 4094) were conducted at Eurofins following their experimental protocols (https://www.eurofins.com/).

Data set [8] deals with T2, human CYP3A4 (Homo sapiens, UniProt P08684).
T2 construct: Eurofins Scientific (contract assay) 391
T2 sequence (P08684 whole entry): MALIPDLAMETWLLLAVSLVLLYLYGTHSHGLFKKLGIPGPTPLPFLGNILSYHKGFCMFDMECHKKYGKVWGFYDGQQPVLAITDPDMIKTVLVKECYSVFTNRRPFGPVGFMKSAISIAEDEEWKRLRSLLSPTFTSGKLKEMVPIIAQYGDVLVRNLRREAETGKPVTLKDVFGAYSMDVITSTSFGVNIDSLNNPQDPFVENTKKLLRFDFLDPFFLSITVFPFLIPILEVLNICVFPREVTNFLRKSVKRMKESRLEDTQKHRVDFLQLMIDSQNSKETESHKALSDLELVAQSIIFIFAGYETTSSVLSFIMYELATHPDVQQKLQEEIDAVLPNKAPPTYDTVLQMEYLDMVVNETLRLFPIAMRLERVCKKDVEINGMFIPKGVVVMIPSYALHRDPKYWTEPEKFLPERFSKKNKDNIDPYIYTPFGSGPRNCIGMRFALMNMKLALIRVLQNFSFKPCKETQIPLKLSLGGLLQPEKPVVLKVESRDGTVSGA
The experiment in a line: CYP3A4 inhibition (Eurofins). Type of data set: in vitro ADME.
Text: as §3

The test system of data set [9] is HO-1. Briefly: HO-1 protein expression by Western blot, A172. It counts as cell-based, human. Conditions: A172, 10 μM, 48 h. Here is the method:
as §1, §2

Data set [10] deals with HO-1. The experiment in a line: HO-1 protein expression by Western blot, DU145. It counts as cell-based. As to conditions: DU145, 10 μM, 48 h. Here is the method:
as §1, §2

In data set [11] the test system is A549 cells. Briefly: MTT cell viability assay, A549. Type of data set: cell-based, human. As to conditions: 48 h, 10 μM. Here is the method:
Experiments were performed on human GBM cell lines U87MG (ATCCC number #HTB-14) and A172 (ATCCC #CRL-1620) on DU145 (ATCC HTB-81) and human lung adenocarcinoma A549 (ATCC CCL-185-LUC2). All cell lines were obtained from the American Type Culture Collection (ATCC, Rockville, MD). Cells were grown in Dulbecco’s modified Eagle’s medium (DMEM) supplemented with 10% of heat-inactivated fetal bovine serum (FBS), 100 U/mL of penicillin, and 100 μg/mL of streptomycin (Sigma-Aldrich, Steinheim, Germany). Cells were incubated at 37 °C in a humidified atmosphere with 5% CO2.
The effect of selected compounds 7i and 7l–p on cell viability was assessed by performing an MTT assay. Cells were seeded into 96-well plates at a density of 7 × 10^3 cells/well in 100 μL of culture medium. After 24 h, cells were treated with selected compounds at three different concentrations (1 μM, 10 μM, and 50 μM) for 48 h. Following treatments, 0.5 mg/mL of 3-[4,5-dimethylthiazol-2-yl]-2,5-diphenyltetrazolium bromide (MTT) (Sigma-Aldrich) was added to each well and incubated for 4 h at 37 °C. Finally, dimethyl-sulfoxide (DMSO) was used to dissolve formazan salts, and absorbance was measured at 570 nm in a microplate reader (Biotek Synergy-HT). Eight replicate wells were used for each group.
A general note: Tetrazolium dyes change colour on reduction, which living cells bring about.

[12] abbreviates: Caco-2, pH 6.5/7.4, tested concentration 10 μM.

Converted amounts (≈) assume the structure as drawn.

T1 sequence (P10635 whole entry): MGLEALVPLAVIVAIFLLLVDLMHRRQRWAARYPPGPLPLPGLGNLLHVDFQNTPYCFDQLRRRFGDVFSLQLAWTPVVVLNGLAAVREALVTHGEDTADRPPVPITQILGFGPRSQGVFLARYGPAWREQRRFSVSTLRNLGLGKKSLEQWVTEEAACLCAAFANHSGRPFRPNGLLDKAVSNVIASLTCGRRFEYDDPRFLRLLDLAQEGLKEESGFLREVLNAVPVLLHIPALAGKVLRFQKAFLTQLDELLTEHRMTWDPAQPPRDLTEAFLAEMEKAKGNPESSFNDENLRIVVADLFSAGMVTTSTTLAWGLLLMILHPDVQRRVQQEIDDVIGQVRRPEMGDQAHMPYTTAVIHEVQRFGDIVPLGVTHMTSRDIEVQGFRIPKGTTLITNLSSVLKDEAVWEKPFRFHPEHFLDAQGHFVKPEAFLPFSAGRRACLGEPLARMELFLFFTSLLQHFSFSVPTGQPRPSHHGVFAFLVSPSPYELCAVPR

Take `CN(C(=O)Cn1ccnc1)C(c1ccccc1)c1ccc(Cl)cc1` (centres unmarked) [7l, N-((4-Chlorophenyl)(phenyl)methyl)-2-(1H-imidazol-1-yl)-N-methylacetamide]: in [1] (Caco-2, read-out: efflux ratio (Papp BA/Papp AB)), the efflux ratio at 10 μM was 0.44. For the same compound, in data set [1] (setting [12]), the Papp A→B at 10 µM was 44.1 ×10⁻⁶ cm/s and the Papp B→A at 10 µM was found to be 19.4 ×10⁻⁶ cm/s. Moreover, the “number of tube-like structures (in words)” value in [2] is “significantly decreased”. For the same compound, the “HO-1 immunoreactivity (in words)” value in data set [3] is given as “reduced the immunoreactivity of HO-1”. Further, the “HO-1 protein expression (in words)” value in [4] is reported as “reduced HO-1 expression”. The compound also gave a microsomal CLint in [5] of 58.3 µL/min/mg. In addition, the half-life in [5] (read-out: microsomal stability t1/2) is 1.98 h. The compound further yielded an IC50 in data set [6] of 2500 nM. In data set [7], the concentration in solution (solubility) was 196 µM (≈ 66.5 µg/mL). This compound yielded an IC50 in data set [8] of 180 nM.
The compound `CN(C(=O)Cn1ccnc1)C(c1ccccc1)c1ccc(I)cc1` (centres unmarked) [7n, 2-(1H-Imidazol-1-yl)-N-((4-iodophenyl)(phenyl)methyl)-N-methylacetamide] showed a melting point of 69 to 71 °C. The “HO-1 protein expression (in words)” value in data set [4] is reported as “enhanced its levels”. The “HO-1 protein expression (in words)” value in data set [9] was “enhanced its levels”. The “HO-1 protein expression (in words)” value in data set [10] is on record as “reduced HO-1 protein expression”.
Compound `CN(C(=O)Cn1ccnc1)C(c1ccccc1)c1ccc(OCc2ccccc2)cc1` (centres unmarked) [7o, N-((4-(Benzyloxy)phenyl)(phenyl)methyl)-2-(1H-imidazol-1-yl)-N-methylacetamide] yielded a melting point of 119 to 121 °C. Moreover, the “cell viability reduction (in words)” value in data set [11] is “weak effect”.

Broadly, the Papp A→B is how fast a substance crosses the layer from the apical side. Low readings indicate poor permeation, high ones ready permeation. In general, Papp B→A refers to how fast a substance crosses the layer from the basolateral side. The term microsomal CLint denotes the rate of metabolic loss divided by the concentration. Low readings indicate greater metabolic stability, high ones faster metabolism. One may read the IC50 as the concentration that gives 50% inhibition. A lower IC50 goes with inhibition by little substance. Usually solubility stands for the dissolved amount per volume that the medium holds. Read a low solubility as little dissolved substance. A word on the melting point: it is the temperature, or range, at which the solid turns liquid.
